Experimental data from ChEMBL document CHEMBL4665624, “Synthesis of 5-(4-(1H-phenanthro[9,10-d]imidazol-2-yl)benzylidene)thiazolidine-2,4-dione as promising DNA and serum albumin-binding agents and evaluation of antitumor activity” (Eur J Med Chem, 2019).

Experiments:
OVCAR-3 = test: Antitumor activity against human OVCAR-3 cells assessed as cell growth inhibition at 10 uM incubated for 48 hrs by sulforhodamine B assay; format: functional; conditions: read-out: GI
RXF 393 = test: Antitumor activity against human RXF 393 cells assessed as cell growth inhibition at 10 uM incubated for 48 hrs by sulforhodamine B assay; format: functional; conditions: read-out: GI
M14 = test: Antitumor activity against human M14 cells assessed as cell growth inhibition at 10 uM incubated for 48 hrs by sulforhodamine B assay; format: functional; conditions: read-out: GI
SK-MEL-28 = test: Antitumor activity against human SK-MEL-28 cells assessed as cell growth inhibition at 10 uM incubated for 48 hrs by sulforhodamine B assay; format: functional; conditions: read-out: GI
SF-268 = test: Antitumor activity against human SF268 cells assessed as cell growth inhibition at 10 uM incubated for 48 hrs by sulforhodamine B assay; format: functional; conditions: read-out: GI
KM12 = test: Antitumor activity against human KM12 cells assessed as cell growth inhibition at 10 uM incubated for 48 hrs by sulforhodamine B assay; format: functional; conditions: read-out: GI
NCI-H522 = test: Antitumor activity against human NCI-H522 cells assessed as cell growth inhibition at 10 uM incubated for 48 hrs by sulforhodamine B assay; format: functional; conditions: read-out: GI
UO-31 = test: Antitumor activity against human UO-31 cells assessed as cell growth inhibition at 10 uM incubated for 48 hrs by sulforhodamine B assay; format: functional; conditions: read-out: GI
MDA-MB-468 = test: Antitumor activity against human MDA-MB-468 cells assessed as cell growth inhibition at 10 uM incubated for 48 hrs by sulforhodamine B assay; format: functional; conditions: read-out: GI
SN12C = test: Antitumor activity against human SN12C cells assessed as cell growth inhibition at 10 uM incubated for 48 hrs by sulforhodamine B assay; format: functional; conditions: read-out: GI
IGROV-1 = test: Antitumor activity against human IGROV1 cells assessed as cell growth inhibition at 10 uM incubated for 48 hrs by sulforhodamine B assay; format: functional; conditions: read-out: GI
OVCAR-4 = test: Antitumor activity against human OVCAR-4 cells assessed as cell growth inhibition at 10 uM incubated for 48 hrs by sulforhodamine B assay; format: functional; conditions: read-out: GI
HL-60(TB) = test: Antitumor activity against human HL-60(TB) cells assessed as cell growth inhibition at 10 uM incubated for 48 hrs by sulforhodamine B assay; format: functional; conditions: read-out: GI
MDA-MB-435 = test: Antitumor activity against human MDA-MB-435 cells assessed as cell growth inhibition at 10 uM incubated for 48 hrs by sulforhodamine B assay; format: functional; conditions: read-out: GI
786-0 = test: Antitumor activity against human 786-0 cells assessed as cell growth inhibition at 10 uM incubated for 48 hrs by sulforhodamine B assay; format: functional; conditions: read-out: GI
UACC-62 = test: Antitumor activity against human UACC-62 cells assessed as cell growth inhibition at 10 uM incubated for 48 hrs by sulforhodamine B assay; format: functional; conditions: read-out: GI
MDA-MB-231 = test: Antitumor activity against human MDA-MB-231/ATCC cells assessed as cell growth inhibition at 10 uM incubated for 48 hrs by sulforhodamine B assay; format: functional; conditions: read-out: GI
SR = test: Antitumor activity against human SR cells assessed as cell growth inhibition at 10 uM incubated for 48 hrs by sulforhodamine B assay; format: functional; conditions: read-out: GI
BT-549 = test: Antitumor activity against human BT-549 cells assessed as cell growth inhibition at 10 uM incubated for 48 hrs by sulforhodamine B assay; format: functional; conditions: read-out: GI
NCI-H226 = test: Antitumor activity against human NCI-H226 assessed as cell growth inhibition at 10 uM incubated for 48 hrs by sulforhodamine B assay; format: functional; conditions: read-out: GI
K562 = test: Antitumor activity against human K562 cells assessed as cell growth inhibition at 10 uM incubated for 48 hrs by sulforhodamine B assay; format: functional; conditions: read-out: GI
NCI/ADR-RES = test: Antitumor activity against human NCI/ADR-RES cells assessed as cell growth inhibition at 10 uM incubated for 48 hrs by sulforhodamine B assay; format: functional; conditions: read-out: GI
Malme-3M = test: Antitumor activity against human MALME-3M cells assessed as cell growth inhibition at 10 uM incubated for 48 hrs by sulforhodamine B assay; format: functional; conditions: read-out: GI
COLO 205 = test: Antitumor activity against human COLO205 cells assessed as cell growth inhibition at 10 uM incubated for 48 hrs by sulforhodamine B assay; format: functional; conditions: read-out: GI
NCI-H23 = test: Antitumor activity against human NCI-H23 cells assessed as cell growth inhibition at 10 uM incubated for 48 hrs by sulforhodamine B assay; format: functional; conditions: read-out: GI
CCRF-CEM = test: Antitumor activity against human CCRF-CEM cells assessed as cell growth inhibition at 10 uM incubated for 48 hrs by sulforhodamine B assay; format: functional; conditions: read-out: GI
Hs-578T = test: Antitumor activity against human HS 578T cells assessed as cell growth inhibition at 10 uM incubated for 48 hrs by sulforhodamine B assay; format: functional; conditions: read-out: GI
LOX IMVI = test: Antitumor activity against human LOX IMVI cells assessed as cell growth inhibition at 10 uM incubated for 48 hrs by sulforhodamine B assay; format: functional; conditions: read-out: GI
MOLT-4 = test: Antitumor activity against human MOLT4 cells assessed as cell growth inhibition at 10 uM incubated for 48 hrs by sulforhodamine B assay; format: functional; conditions: read-out: GI
ACHN = test: Antitumor activity against human ACHN cells assessed as cell growth inhibition at 10 uM incubated for 48 hrs by sulforhodamine B assay; format: functional; conditions: read-out: GI
U-251 = test: Antitumor activity against human U251 cells assessed as cell growth inhibition at 10 uM incubated for 48 hrs by sulforhodamine B assay; format: functional; conditions: read-out: GI
A498 = test: Antitumor activity against human A498 cells assessed as cell growth inhibition at 10 uM incubated for 48 hrs by sulforhodamine B assay; format: functional; conditions: read-out: GI
HT-29 = test: Antitumor activity against human HT-29 cells assessed as cell growth inhibition at 10 uM incubated for 48 hrs by sulforhodamine B assay; format: functional; conditions: read-out: GI
EKVX = test: Antitumor activity against human EKVX cells assessed as cell growth inhibition at 10 uM incubated for 48 hrs by sulforhodamine B assay; format: functional; conditions: read-out: GI
HCT-116 = test: Antitumor activity against human HCT116 cells assessed as cell growth inhibition at 10 uM incubated for 48 hrs by sulforhodamine B assay; format: functional; conditions: read-out: GI
SNB-19 = test: Antitumor activity against human SNB-19 cells assessed as cell growth inhibition at 10 uM incubated for 48 hrs by sulforhodamine B assay; format: functional; conditions: read-out: GI
HOP-92 = test: Antitumor activity against human HOP92 cells assessed as cell growth inhibition at 10 uM incubated for 48 hrs by sulforhodamine B assay; format: functional; conditions: read-out: GI
NCI-H460 = test: Antitumor activity against human NCI-H460 assessed as cell growth inhibition at 10 uM incubated for 48 hrs by sulforhodamine B assay; format: functional; conditions: read-out: GI
RPMI-8226 = test: Antitumor activity against human RPMI8226 cells assessed as cell growth inhibition at 10 uM incubated for 48 hrs by sulforhodamine B assay; format: functional; conditions: read-out: GI
SK-OV-3 = test: Antitumor activity against human SK-OV-3 cells assessed as cell growth inhibition at 10 uM incubated for 48 hrs by sulforhodamine B assay; format: functional; conditions: read-out: GI
MCF7 = test: Antitumor activity against human MCF7 cells assessed as cell growth inhibition at 10 uM incubated for 48 hrs by sulforhodamine B assay; format: functional; conditions: read-out: GI
SNB-75 = test: Antitumor activity against human SNB-75 cells assessed as cell growth inhibition at 10 uM incubated for 48 hrs by sulforhodamine B assay; format: functional; conditions: read-out: GI
PC-3 = test: Antitumor activity against human PC-3 cells assessed as cell growth inhibition at 10 uM incubated for 48 hrs by sulforhodamine B assay; format: functional; conditions: read-out: GI
SW-620 = test: Antitumor activity against human SW620 cells assessed as cell growth inhibition at 10 uM incubated for 48 hrs by sulforhodamine B assay; conditions: SW-620, 48 h, read-out: GI
SF-295 = test: Antitumor activity against human SF295 cells assessed as cell growth inhibition at 10 uM incubated for 48 hrs by sulforhodamine B assay; format: functional; conditions: read-out: GI
HCC 2998 = test: Antitumor activity against human HCC2998 cells assessed as cell growth inhibition at 10 uM incubated for 48 hrs by sulforhodamine B assay; format: functional; conditions: read-out: GI
OVCAR-8 = test: Antitumor activity against human OVCAR-8 cells assessed as cell growth inhibition at 10 uM incubated for 48 hrs by sulforhodamine B assay; format: functional; conditions: read-out: GI
HCT-15 = test: Antitumor activity against human HCT15 cells assessed as cell growth inhibition at 10 uM incubated for 48 hrs by sulforhodamine B assay; format: functional; conditions: read-out: GI

Compound: Oc1ccccc1-c1nc2c3ccccc3c3ccccc3c2o1
- inhibition of growth at 10 µM (OVCAR-3): < 10%
- inhibition of growth at 10 µM (RXF 393): < 10%
- inhibition of growth at 10 µM (M14): < 10%
- inhibition of growth at 10 µM (SK-MEL-28): < 10%
- inhibition of growth at 10 µM (SF-268): 10.2%
- inhibition of growth at 10 µM (KM12): < 10%
- inhibition of growth at 10 µM (NCI-H522): < 10%
- inhibition of growth at 10 µM (UO-31): 39%
- inhibition of growth at 10 µM (MDA-MB-468): 17%
- inhibition of growth at 10 µM (SN12C): 17%
- inhibition of growth at 10 µM (IGROV-1): 25.9%
- inhibition of growth at 10 µM (OVCAR-4): 23.6%
- inhibition of growth at 10 µM (HL-60(TB)): 12%
- inhibition of growth at 10 µM (MDA-MB-435): < 10%
- inhibition of growth at 10 µM (786-0): < 10%
- inhibition of growth at 10 µM (UACC-62): 11.6%
- inhibition of growth at 10 µM (MDA-MB-231): 18.3%
- inhibition of growth at 10 µM (SR): 26.3%
- inhibition of growth at 10 µM (BT-549): < 10%
- inhibition of growth at 10 µM (NCI-H226): 14.2%
- inhibition of growth at 10 µM (K562): 11.9%
- inhibition of growth at 10 µM (NCI/ADR-RES): < 10%
- inhibition of growth at 10 µM (Malme-3M): < 10%
- inhibition of growth at 10 µM (COLO 205): 14.3%
- inhibition of growth at 10 µM (NCI-H23): 14.5%
- inhibition of growth at 10 µM (CCRF-CEM): 17.9%
- inhibition of growth at 10 µM (Hs-578T): 10.5%
- inhibition of growth at 10 µM (LOX IMVI): < 10%
- inhibition of growth at 10 µM (MOLT-4): < 10%
- inhibition of growth at 10 µM (ACHN): < 10%
- inhibition of growth at 10 µM (U-251): 18%
- inhibition of growth at 10 µM (A498): < 10%
- inhibition of growth at 10 µM (HT-29): < 10%
- inhibition of growth at 10 µM (EKVX): 21.2%
- inhibition of growth at 10 µM (HCT-116): 19.2%
- inhibition of growth at 10 µM (SNB-19): < 10%
- inhibition of growth at 10 µM (HOP-92): 16.2%
- inhibition of growth at 10 µM (NCI-H460): 30.4%
- inhibition of growth at 10 µM (RPMI-8226): 24.5%
- inhibition of growth at 10 µM (SK-OV-3): < 10%
- inhibition of growth at 10 µM (MCF7): 37.6%
- inhibition of growth at 10 µM (SNB-75): 10.3%
- inhibition of growth at 10 µM (PC-3): 22.2%
- inhibition of growth at 10 µM (SW-620): 31.6%
- inhibition of growth at 10 µM (SF-295): < 10%
- inhibition of growth at 10 µM (HCC 2998): < 10%
- inhibition of growth at 10 µM (OVCAR-8): 11%
- inhibition of growth at 10 µM (HCT-15): < 10%
